Reference: patent US10689400B2, “Macrocycle kinase inhibitors” (Turning Point Therapeutics, Inc., priority 2016, dated 2020)

Columns and labels:
[1] = tested on: KM12 cells (harboring endogenous TPM3-TRKA fusion gene); assay: KM12 cell proliferation assay (CellTiter-Glo, 72 hours); format: cell-based; conditions: Homo sapiens, KM12 colorectal cell line, 72 hours incubation
Experimental: (§1) Colorectal cell lines KM 12 (harboring endogenous TPM3-TRKA fusion gene) cells were cultured in DMEM medium, supplemented with 10% fetal bovine serum and 100 U/mL of penicillin/streptomycin. 5000 cells were seeded in 384 well white plate for 24 hours before compounds treatment. Cell proliferation was measured using CellTiter-Glo luciferase-based ATP detection assay (Promega) following the manufactures's protocol after 72 hours incubation. IC50 determinations were performed using GraphPad Prism software (GraphPad, Inc., San Diego, Calif.).
as §1, with “Alternatively: Colorectal” for “Colorectal”, “line KM12” for “lines KM 12”, “DMEM medium, supplemented with 10% fetal bovine serum and 100 U/mL of penicillin/streptomycin. Essential thrombocythemia cell line SET-2 cells (harboring endogenous JAK2 V618F point mutation) were cultured in RPMI” for “DMEM”

[2] = tested on: SET-2 cells (harboring endogenous JAK2 V618F point mutation); assay: SET-2 cell proliferation assay (CellTiter-Glo, 72 hours); format: cell-based; conditions: Homo sapiens, SET-2 essential thrombocythemia cell line, 72 hours incubation, read-out: Cell Proliferation JAK2 SET2 Cell IC50
Experimental: as §1, with “Alternatively: Colorectal” for “Colorectal”, “line KM12” for “lines KM 12”, “DMEM medium, supplemented with 10% fetal bovine serum and 100 U/mL of penicillin/streptomycin. Essential thrombocythemia cell line SET-2 cells (harboring endogenous JAK2 V618F point mutation) were cultured in RPMI” for “DMEM”

BTK kinase = target: T1, BTK kinase (Homo sapiens, UniProt Q06187); assay: BTK biochemical kinase assay (radiometric; Eurofins KinaseProfiler / Reaction Biology); conditions: ATP 10 μM
T1 construct: purchased Eurofins (KinaseProfiler) / Reaction Biology Corporation
Experimental: The Compounds were tested against BTK kinase using the Eurofins standard KinaseProfiler™ assays and following the relevant standard operating procedures. Protein kinases were assayed in a radiometric format. Full details of the assay for each kinase are available on the Eurofins website, or in the accompanying protocol document. All compounds were prepared to a working stock of 50× final assay concentration in 100% DMSO. Where appropriate, more concentrated stocks were diluted manually to 50× using 100% DMSO. Compounds supplied as powders were reconstituted to a 10 mM stock in 100% DMSO before further dilution to 50×. The required volume of the 50× stock of test compound was added to the assay well, before a reaction mix containing the enzyme and substrate was added. The reaction was initiated by the addition of ATP at the selected 10 μM concentration. There was no pre-incubation of the compound with the enzyme/substrate mix prior to ATP addition. For IC50 determinations, data are analysed using XLFit version 5.3 (ID Business Solutions). Sigmoidal dose-response (variable slope) curves are fit based on the mean result for each test concentration using non-linear regression analysis. Where the top and/or bottom of the curve fall >10% out with 100 and 0, respectively, either or both of these limits may be constrained at 100 and 0, provided that the QC criterion on R^2 is met.
The BTK biochemical kinase assay was also performed at Reaction Biology Corporation (www.reactionbiology.com, Malvern, Pa.) following the procedures described in the reference (Anastassiadis T, et al Nat Biotechnol. 2011, 29, 1039). Specific kinase/substrate pairs along with required cofactors were prepared in reaction buffer; 20 mM Hepes pH 7.5, 10 mM MgCl2, 1 mM EGTA, 0.02% Brij35, 0.02 mg/ml BSA, 0.1 mM Na3VO4, 2 mM DTT, 1% DMSO (for specific details of individual kinase reaction components see Supplementary Table 2). Compounds were delivered into the reaction, followed ˜20 minutes later by addition of a mixture of ATP (Sigma, St. Louis Mo.) and ^33P ATP (Perkin Elmer, Waltham Mass.) to a final concentration of 10 μM. Reactions were carried out at room temperature for 120 min, followed by spotting of the reactions onto P81 ion exchange filter paper (Whatman Inc., Piscataway, N.J.). Unbound phosphate was removed by extensive washing of filters in 0.75% phosphoric acid. […] IC50 values and curve fits were obtained using Prism (GraphPad Software).

T1 sequence (Q06187 whole entry): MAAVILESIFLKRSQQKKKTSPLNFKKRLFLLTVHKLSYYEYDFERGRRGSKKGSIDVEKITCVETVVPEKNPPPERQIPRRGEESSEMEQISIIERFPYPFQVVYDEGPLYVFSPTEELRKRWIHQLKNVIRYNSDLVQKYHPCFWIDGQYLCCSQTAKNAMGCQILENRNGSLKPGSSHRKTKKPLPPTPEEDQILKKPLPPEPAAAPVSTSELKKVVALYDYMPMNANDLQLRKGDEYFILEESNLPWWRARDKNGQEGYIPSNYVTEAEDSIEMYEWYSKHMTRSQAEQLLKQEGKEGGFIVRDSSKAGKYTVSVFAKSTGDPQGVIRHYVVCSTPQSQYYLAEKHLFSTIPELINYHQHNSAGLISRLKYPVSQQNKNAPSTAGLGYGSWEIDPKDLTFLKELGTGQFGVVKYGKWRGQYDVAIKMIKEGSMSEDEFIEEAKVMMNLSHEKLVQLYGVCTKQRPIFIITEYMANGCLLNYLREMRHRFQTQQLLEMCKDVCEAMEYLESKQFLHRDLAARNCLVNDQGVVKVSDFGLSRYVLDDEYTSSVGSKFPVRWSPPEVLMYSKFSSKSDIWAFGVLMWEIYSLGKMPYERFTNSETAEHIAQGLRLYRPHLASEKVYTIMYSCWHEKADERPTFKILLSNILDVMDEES

Compound | IC50 (BTK kinase) [nM] | IC50 [1] [nM] | IC50 [2] [nM]
C[C@H]1Nc2ccn3ncc(c3n2)C(=O)NC[C@@H](CO)Oc2c(F)cc(F)cc21 [Compound 3, (7S,13R)-9,11-difluoro-7-(hydroxymethyl)-13-methyl-6,7,13,14-tetrahydro-1,15-ethenopyrazolo[4,3-f][1,4,8,10]benzoxatriazacyclotridecin-4(5H)-one] | – | 21.5 | 15.5
C[C@H]1Nc2ccn3ncc(c3n2)C(=O)NC[C@@H](CO)Oc2ccc(F)c(Cl)c21 [Compound 4, (7S,13R)-12-chloro-11-fluoro-7-(hydroxymethyl)-13-methyl-6,7,13,14-tetrahydro-1,15-ethenopyrazolo[4,3-f][1,4,8,10]benzoxatriazacyclotridecin-4(5H)-one] | – | 45.4 | 3000
C[C@H]1Nc2ccn3ncc(c3n2)C(=O)NCCOc2c(Br)cc(F)cc21 [Compound 5, (13R)-9-bromo-11-fluoro-13-methyl-6,7,13,14-tetrahydro-1,15-ethenopyrazolo[4,3-f][1,4,8,10]benzoxatriazacyclotridecin-4(5H)-one] | 60 | 5 | 200
C[C@H]1Nc2ccn3ncc(c3n2)C(=O)NCCOc2c(Cl)cc(F)cc21 [Compound 6, (13R)-9-chloro-11-fluoro-13-methyl-6,7,13,14-tetrahydro-1,15-ethenopyrazolo[4,3-f][1,4,8,10]benzoxatriazacyclotridecin-4(5H)-one] | 64.4 | 4.2 | 78.2
C[C@H]1CNC(=O)c2cnn3ccc(nc23)N[C@H](C)c2cc(F)cc(Br)c2O1 [Compound 7, (7S,13R)-9-bromo-11-fluoro-7,13-dimethyl-6,7,13,14-tetrahydro-1,15-ethenopyrazolo[4,3-f][1,4,8,10]benzoxatriazacyclotridecin-4(5H)-one] | – | 0.2 | 6.7
CC(C)N1Cc2cc(F)cc(F)c2OCCNC(=O)c2cnn3ccc1nc23 [Compound 9, 9,11-difluoro-14-(propan-2-yl)-6,7,13,14-tetrahydro-1,15-ethenopyrazolo[4,3-f][1,4,8,10]benzoxatriazacyclotridecin-4(5H)-one] | 22.2 | 5.2 | 132
CC(C)N1Cc2cc(F)cc(Cl)c2OCCNC(=O)c2cnn3ccc1nc23 [Compound 10, 9-chloro-11-fluoro-14-(propan-2-yl)-6,7,13,14-tetrahydro-1,15-ethenopyrazolo[4,3-f][1,4,8,10]benzoxatriazacyclotridecin-4(5H)-one] | 179 | 0.1 | 1480
C[C@H]1CNC(=O)c2cnn3ccc(nc23)N[C@H](C)c2c(ccc(F)c2F)O1 [Compound 11, (7S,13R)-11,12-difluoro-7,13-dimethyl-6,7,13,14-tetrahydro-1,15-ethenopyrazolo[4,3-f][1,4,8,10]benzoxatriazacyclotridecin-4(5H)-one] | 14.2 | 0.2 | 3.9
CC(C)Oc1cc(F)cc2c1OCCNC(=O)c1cnn3ccc(nc13)N[C@@H]2C [Compound 15, (13R)-11-fluoro-13-methyl-9-[(propan-2-yl)oxy]-6,7,13,14-tetrahydro-1,15-ethenopyrazolo[4,3-f][1,4,8,10]benzoxatriazacyclotridecin-4(5H)-one] | 154 | 2 | 500
COc1cc(F)cc2c1OCCNC(=O)c1cnn3ccc(nc13)N[C@@H]2C [Compound 16, (13R)-11-fluoro-9-methoxy-13-methyl-6,7,13,14-tetrahydro-1,15-ethenopyrazolo[4,3-f][1,4,8,10]benzoxatriazacyclotridecin-4(5H)-one] | 450 | 13.9 | 300
C[C@H]1Nc2ccn3ncc(c3n2)C(=O)NCCOc2c(O)cc(F)cc21 [Compound 17, (13R)-11-fluoro-9-hydroxy-13-methyl-6,7,13,14-tetrahydro-1,15-ethenopyrazolo[4,3-f][1,4,8,10]benzoxatriazacyclotridecin-4(5H)-one] | 48 | 15.4 | 600
C[C@H]1CNC(=O)c2cnn3ccc(nc23)N[C@H](C)c2cc(F)cc(-c3cnn(C)c3)c2O1 [Compound 18, (7S,13R)-11-fluoro-7,13-dimethyl-9-(1-methyl-1H-pyrazol-4-yl)-6,7,13,14-tetrahydro-1,15-ethenopyrazolo[4,3-f][1,4,8,10]benzoxatriazacyclotridecin-4(5H)-one] | 60 | 23.5 | 600
C[C@H]1Nc2ccn3ncc(c3n2)C(=O)NCCOc2c(-c3cnn(C)c3)cc(F)cc21 [Compound 19, (13R)-11-fluoro-13-methyl-9-(1-methyl-1H-pyrazol-4-yl)-6,7,13,14-tetrahydro-1,15-ethenopyrazolo[4,3-f][1,4,8,10]benzoxatriazacyclotridecin-4(5H)-one] | 476 | 53.4 | 1000
Cc1nn(C)cc1-c1cc(F)cc2c1O[C@@H](C)CNC(=O)c1cnn3ccc(nc13)N[C@@H]2C [Compound 20, (7S,13R)-9-(1,3-dimethyl-1H-pyrazol-4-yl)-11-fluoro-7,13-dimethyl-6,7,13,14-tetrahydro-1,15-ethenopyrazolo[4,3-f][1,4,8,10]benzoxatriazacyclotridecin-4(5H)-one] | 238 | 6.4 | –

Further compounds by falling IC50 (BTK kinase), results first:

IC50 (BTK kinase) [nM] | Compound | IC50 [1] [nM] | IC50 [2] [nM]
9.67 | CC(C)N1Cc2cc(F)cc(F)c2OCCCNC(=O)c2cnn3ccc1nc23 [Compound 12, 10,12-difluoro-15-(propan-2-yl)-5,6,7,8,14,15-hexahydro-4H-1,16-ethenopyrazolo[4,3-g][1,5,9,11]benzoxatriazacyclotetradecin-4-one] | 0.2 | 5000
5.54 | CC(C)N1Cc2c(ccc(F)c2Cl)OCCNC(=O)c2cnn3ccc1nc23 [Compound 13, 12-chloro-11-fluoro-14-(propan-2-yl)-6,7,13,14-tetrahydro-1,15-ethenopyrazolo[4,3-f][1,4,8,10]benzoxatriazacyclotridecin-4(5H)-one] | 300 | 10000
3.97 | C[C@H]1CNC(=O)c2cnn3ccc(nc23)N[C@H](C)c2cc(F)cc(Cl)c2O1 [Compound 8, (7S,13R)-9-chloro-11-fluoro-7,13-dimethyl-6,7,13,14-tetrahydro-1,15-ethenopyrazolo[4,3-f][1,4,8,10]benzoxatriazacyclotridecin-4(5H)-one] | 0.2 | 83.7
2.53 | C[C@H]1CNC(=O)c2cnn3ccc(nc23)N[C@H](C)c2c(ccc(F)c2Cl)O1 [Compound 2, (7S,13R)-12-chloro-11-fluoro-7,13-dimethyl-6,7,13,14-tetrahydro-1,15-ethenopyrazolo[4,3-f][1,4,8,10]benzoxatriazacyclotridecin-4(5H)-one] | 5.1 | 3000
2.47 | C[C@H]1CNC(=O)c2cnn3ccc(nc23)N[C@H](C)c2cc(F)cc(F)c2O1 [Compound 1, (7S,13R)-9,11-difluoro-7,13-dimethyl-6,7,13,14-tetrahydro-1,15-ethenopyrazolo[4,3-f][1,4,8,10]benzoxatriazacyclotridecin-4(5H)-one] | 0.2 | 120
0.536 | CC(C)N1Cc2c(ccc(F)c2Cl)O[C@@H](C)CNC(=O)c2cnn3ccc1nc23 [Compound 14, (7S)-12-chloro-11-fluoro-7-methyl-14-(propan-2-yl)-6,7,13,14-tetrahydro-1,15-ethenopyrazolo[4,3-f][1,4,8,10]benzoxatriazacyclotridecin-4(5H)-one] | 0.2 | 1500
